Results: patent publication US20070049593A1 (priority 2004, published 2007)
pIC50: −log10 of the molar value. Counter-ions that a name gives are not always drawn.

What follows are compounds tested against T1, HCV polymerase (Hepatitis C virus genotype 1b, UniProt P26663) (assay: biochemical). Conditions: not given.
T1 construct: a region encoding NS5B (J Virol 1991 March, 65(3), 1105-13, 544 amino acids after deletion of 47 amino acids on the C-terminal); 6xHis (C); made in house; host or cells: Escherichia coli
T1 sequence (P26663 2420-2963): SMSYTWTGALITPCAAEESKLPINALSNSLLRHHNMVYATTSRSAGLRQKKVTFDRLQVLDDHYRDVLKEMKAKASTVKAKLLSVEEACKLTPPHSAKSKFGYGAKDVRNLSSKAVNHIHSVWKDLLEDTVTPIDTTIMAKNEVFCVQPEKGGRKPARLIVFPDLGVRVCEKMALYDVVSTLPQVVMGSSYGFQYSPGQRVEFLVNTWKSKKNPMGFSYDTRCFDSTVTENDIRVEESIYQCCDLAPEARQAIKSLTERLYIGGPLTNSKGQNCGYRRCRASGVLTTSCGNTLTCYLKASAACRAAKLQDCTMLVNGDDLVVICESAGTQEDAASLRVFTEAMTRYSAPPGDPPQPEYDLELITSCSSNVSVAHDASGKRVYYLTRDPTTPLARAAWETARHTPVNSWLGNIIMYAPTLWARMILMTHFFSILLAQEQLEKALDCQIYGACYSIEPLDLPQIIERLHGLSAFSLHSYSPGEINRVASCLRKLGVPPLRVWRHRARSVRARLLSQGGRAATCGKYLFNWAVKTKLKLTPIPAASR
Set-up: species or system HCV BK strain
Method in brief: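 His-tagged NS5B (BK strain, 47-aa C-terminal deletion, E. coli-expressed) at 0.5 μg/ml copied 5 μg/ml run-off RNA bearing the HCV 3′ UTR with 2 μM UTP plus [3H]UTP, 50 μM ATP/GTP, in pH 7.5 Tris with 5 mM MgCl2, 25 °C, 90 min. TCA-precipitated RNA was counted and IC50 calculated.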
With `O=C(O)CN1CCC(NC(=O)c2ccc3c(C4CCCCC4)c4n(c3c2)CCOc2ccccc2-4)(C(=O)O)CC1` [Example 2-229, 1-carboxymethyl-4-[(12-cyclohexyl-6,7-dihydro-5-oxa-7a-azadibenzo[a,e]azulene-9-carbonyl)amino]piperidine-4-carboxylic acid monohydrochloride] the pIC50 was over 7.00.
`CC(C)(NC(=O)c1ccc2c(C3CCCCC3)c3n(c2c1)CCOc1ccccc1-3)c1ccc(O)cc1` [Example 2-230, N-[1-(4-hydroxyphenyl)-1-methylethyl]-12-cyclohexyl-6,7-dihydro-5-oxa-7a-azadibenzo[a,e]azulene-9-carboxamide] was tested, and the pIC50 was over 7.00.
For `CCN(CCN1CCCCCC1)c1cccc2c1OCCn1c-2c(C2CCCCC2)c2ccc(C(=O)O)cc21` [Example 2-231, 4-{N-[2-(azepan-1-yl)ethyl]-N-ethylamino}-12-cyclohexyl-6,7-dihydro-5-oxa-7a-azadibenzo[a,e]azulene-9-carboxylic acid dihydrochloride], the pIC50 was over 7.00.
Work on `CCN(CCC1CCN(C(C)=O)CC1)c1cccc2c1OCCn1c-2c(C2CCCCC2)c2ccc(C(=O)O)cc21` [Example 2-232, 4-{N-[2-(1-acetylpiperidin-4-yl)ethyl]-N-ethylamino)-12-cyclohexyl-6,7-dihydro-5-oxa-7a-azadibenzo[a,e]azulene-9-carboxylic acid] yielded a pIC50 of over 7.00.
Compound `CC(=O)N1CCC(CCN(C(C)=O)c2cccc3c2OCCn2c-3c(C3CCCCC3)c3ccc(C(=O)O)cc32)CC1` [Example 2-233, 4-(N-acetyl-N-[2-(1-acetylpiperidin-4-yl)ethyl]amino}-12-cyclohexyl-6,7-dihydro-5-oxa-7a-azadibenzo[a,e]azulene-9-carboxylic acid] has a pIC50 of over 7.00.
Compound `CC(C)(CN1CCC(O)CC1)NC(=O)c1ccc2c(C3CCCCC3)c3n(c2c1)CCOc1ccccc1-3` [Example 2-234, N-[2-(4-hydroxypiperidin-1-yl)-1,1-dimethylethyl]-12-cyclohexyl-6,7-dihydro-5-oxa-7a-azadibenzo[a,e]azulene-9-carboxamide] has a pIC50 of 6.00 to 7.00.
`COC(=O)c1nc(C(C)(C)NC(=O)c2ccc3c(C4CCCCC4)c4n(c3c2)CCOc2ccccc2-4)oc1C` [Example 2-235, methyl 2-{1-[(12-cyclohexyl-6,7-dihydro-5-oxa-7a-azadibenzo[a,e]azulene-9-carbonyl)amino]-1-methylethyl}-5-methyloxazole-4-carboxylate] was tested, and the pIC50 was over 7.00.
`Cc1oc(C(C)(C)NC(=O)c2ccc3c(C4CCCCC4)c4n(c3c2)CCOc2ccccc2-4)nc1C(=O)O` [Example 2-236, 2-{1-[(12-cyclohexyl-6,7-dihydro-5-oxa-7a-azadibenzo[a,e]azulene-9-carbonyl)amino]-1-methylethyl}-5-methyloxazole-4-carboxylic acid] gave a pIC50 of over 7.00.
`COc1ccc(C[C@H](NC(=O)c2ccc3c(C4CCCCC4)c4n(c3c2)CCOc2ccccc2-4)C(=O)O)cc1` [Example 2-237, (S)-2-[(12-cyclohexyl-6,7-dihydro-5-oxa-7a-azadibenzo[a,e]azulene-9-carbonyl)amino]-3-(4-methoxyphenyl)propionic acid] gave a pIC50 of over 7.00.
For `COC(=O)[C@@H](Cc1ccc(O)cc1)NC(=O)c1ccc2c(C3CCCCC3)c3n(c2c1)CCOc1ccccc1-3` [Example 2-238, methyl (R)-2-[(12-cyclohexyl-6,7-dihydro-5-oxa-7a-azadibenzo[a,e]azulene-9-carbonyl)amino]-3-(4-hydroxyphenyl)propionate], the pIC50 was over 7.00.
In the case of `CC(C)(CN[C@H]1CC[C@H](O)CC1)NC(=O)c1ccc2c(C3CCCCC3)c3n(c2c1)CCOc1ccccc1-3` [Example 2-239, N-[2-(trans-4-hydroxycyclohexylamino)-1,1-dimethylethyl]-12-cyclohexyl-6,7-dihydro-5-oxa-7a-azadibenzo[a,e]azulene-9-carboxamide], the pIC50 was 6.00 to 7.00.
With `CC(C)(NC(=O)c1ccc2c(C3CCCCC3)c3n(c2c1)CCOc1ccccc1-3)C(=O)N1CCCC(O)C1` (stereo not shown) [Example 2-240, N-[2-(3-hydroxypiperidin-1-yl)-1,1-dimethyl-2-oxoethyl]-12-cyclohexyl-6,7-dihydro-5-oxa-7a-azadibenzo[a,e]azulene-9-carboxamide] the pIC50 was over 7.00.
With `CC(C)(NC(=O)c1ccc2c(C3CCCCC3)c3n(c2c1)CCOc1ccccc1-3)c1ccc(OCC(=O)O)cc1` [Example 2-241, (4-{1-[(12-cyclohexyl-6,7-dihydro-5-oxa-7a-azadibenzo[a,e]azulene-9-carbonyl)amino]-1-methylethyl}phenoxy)acetic acid] the pIC50 was over 7.00.
With `CC(C)(NC(=O)c1ccc2c(C3CCCCC3)c3n(c2c1)CCOc1ccccc1-3)C(=O)N1CCC(CO)CC1` [Example 2-242, N-[2-(4-hydroxymethylpiperidin-1-yl)-1,1-dimethyl-2-oxoethyl]-12-cyclohexyl-6,7-dihydro-5-oxa-7a-azadibenzo[a,e]azulene-9-carboxamide] the pIC50 was over 7.00.
For `CCN1CCC(CCN(CC)c2cccc3c2OCCn2c-3c(C3CCCCC3)c3ccc(C(=O)O)cc32)CC1` [Example 2-243, 12-cyclohexyl-4-{N-ethyl-N-[2-(1-ethylpiperidin-4-yl)ethyl]amino}-6,7-dihydro-5-oxa-7a-azadibenzo[a,e]azulene-9-carboxylic acid dihydrochloride], the pIC50 was over 7.00.
For `CC(C)(CN1CCN(CCO)CC1)NC(=O)c1ccc2c(C3CCCCC3)c3n(c2c1)CCOc1ccccc1-3` [Example 2-244, N-{2-[4-(2-hydroxyethyl)piperazin-1-yl]-1,1-dimethylethyl}-12-cyclohexyl-6,7-dihydro-5-oxa-7a-azadibenzo[a,e]azulene-9-carboxamide], the pIC50 was 6.00 to 7.00.
Compound `O=C(N[C@H](Cc1ccc(O)cc1)C(=O)O)c1ccc2c(C3CCCCC3)c3n(c2c1)CCOc1ccccc1-3` [Example 2-246, (R)-2-[(12-cyclohexyl-6,7-dihydro-5-oxa-7a-azadibenzo[a,e]azulene-9-carbonyl)amino]-3-(4-hydroxyphenyl)propionic acid] has a pIC50 of over 7.00.
In the case of `O=C(O)CN1CCC(NC(=O)c2ccc3c(C4CCCCC4)c4n(c3c2)CCOc2ccccc2-4)(c2nc3ccccc3[nH]2)CC1` [Example 2-247, {4-(1H-benzimidazol-2-yl)-4-[(12-cyclohexyl-6,7-dihydro-5-oxa-7a-azadibenzo[a,e]azulene-9-carbonyl)amino]piperidin-1-yl}acetic acid], the pIC50 was over 7.00.
With `COC(=O)CN1CCC(NC(=O)c2ccc3c(C4CCCCC4)c4n(c3c2)CCOc2ccccc2-4)(c2nc3ccccc3[nH]2)CC1` [Example 2-248, methyl (4-(1H-benzimidazol-2-yl)-4-[(12-cyclohexyl-6,7-dihydro-5-oxa-7a-azadibenzo[a,e]azulene-9-carbonyl)amino]piperidin-1-yl]acetate monohydrochloride] the pIC50 was over 7.00.
Work on `Cn1c(CNC(=O)c2ccc3c(C4CCCCC4)c4n(c3c2)CCOc2ccccc2-4)nc2ccccc21` [Example 2-249, N-(1-methyl-1H-benzimidazol-2-ylmethyl)-12-cyclohexyl-6,7-dihydro-5-oxa-7a-azadibenzo[a,e]azulene-9-carboxamide] yielded a pIC50 of over 7.00.
`O=C(O)Cn1c(CNC(=O)c2ccc3c(C4CCCCC4)c4n(c3c2)CCOc2ccccc2-4)nc2ccccc21` [Example 2-250, (2-{[(12-cyclohexyl-6,7-dihydro-5-oxa-7a-azadibenzo[a,e]azulene-9-carbonyl)amino]methyl}benzimidazol-1-yl)acetic acid] was tested, and the pIC50 was over 7.00.
`COC(=O)Cn1c(CNC(=O)c2ccc3c(C4CCCCC4)c4n(c3c2)CCOc2ccccc2-4)nc2ccccc21` [Example 2-251, methyl (2-{[(12-cyclohexyl-6,7-dihydro-5-oxa-7a-azadibenzo[a,e]azulene-9-carbonyl)amino]methyl}benzimidazol-1-yl)acetate] was tested, and the pIC50 was over 7.00.
For `O=C(NCc1nc2ccccc2[nH]1)c1ccc2c(C3CCCCC3)c3n(c2c1)CCOc1ccccc1-3` [Example 2-252, N-(1H-benzimidazol-2-ylmethyl)-12-cyclohexyl-6,7-dihydro-5-oxa-7a-azadibenzo[a,e]azulene-9-carboxamide], the pIC50 was over 7.00.
Compound `CC(C)(CN/C=C/C(=O)O)NC(=O)c1ccc2c(C3CCCCC3)c3n(c2c1)CCOc1ccccc1-3` [Example 2-254, (E)-3-{2-[(12-cyclohexyl-6,7-dihydro-5-oxa-7a-azadibenzo[a,e]azulene-9-carbonyl)amino]-2-methylpropylamino}acrylic acid] has a pIC50 of 6.00 to 7.00.
`CC(C)(CNc1ccc(C(=O)O)cn1)NC(=O)c1ccc2c(C3CCCCC3)c3n(c2c1)CCOc1ccccc1-3` [Example 2-255, 6-{2-[(12-cyclohexyl-6,7-dihydro-5-oxa-7a-azadibenzo[a,e]azulene-9-carbonyl)amino]-2-methylpropylamino}nicotinic acid] was tested, and the pIC50 was over 7.00.
With `O=C(O)c1ccc2c(C3CCCCC3)c3n(c2c1)CCOc1c-3cccc1N(CCOCc1ccccc1)CCN1CCCCC1` [Example 2-256, 4-{N-(2-benzyloxyethyl)-N-[2-(piperidin-1-yl)ethyl]amino}-12-cyclohexyl-6,7-dihydro-5-oxa-7a-azadibenzo[a,e]azulene-9-carboxylic acid dihydrochloride] the pIC50 was over 7.00.

Same assay, conditions: 25° C., 90 min; [5,6-3H]UTP incorporation into RNA; read-out: HCV polymerase inhibitory activity IC50
With `CNC(=O)[C@H](Cc1ccc(O)cc1)NC(=O)c1ccc2c(C3CCCCC3)c3n(c2c1)CCOc1ccccc1-3` [Example 2-245, [(S)-2-(4-hydroxyphenyl)-1-(methylcarbamoyl)ethyl]-12-cyclohexyl-6,7-dihydro-5-oxa-7a-azadibenzo[a,e]azulene-9-carboxamide] the pIC50 was over 7.00.

Same assay, conditions: read-out: HCV polymerase inhibitory activity IC50; 25° C., 90 min; [5,6-3H]UTP incorporation into RNA
For `O=C(NC(Cc1c[nH]c2ccc(O)cc12)C(=O)O)c1ccc2c(C3CCCCC3)c3n(c2c1)CCOc1ccccc1-3` (stereo not shown) [Example 2-253], the pIC50 was over 7.00.
